Key:
Type in all cases: physicochemical
[1] = Influence of nitric acid concentration on cesium extraction from solution No.1; settings: for Distribution ratios of cesium: solution No.1
Text: The dependence of extraction of cesium by organic solutions DTBDB18C6 in fluoropentanol n3 and DB21C7 in Fluoroheptanol n3 at a concentration of nitric acid in a starting solution was studied. Solution No.1 whose composition is listed in Table 2 was used as a starting solution.

[2] = Behaviour of crown ether in decane extraction system (Table 1 remarks); settings: crown ether 0.1 mole/l in Decane
Description: (§1) Study was carried out for determining the distribution ratios of radionuclides, for example, strontium or cesium to be extracted by the extractants according to the invention containing various crown ethers as a complexing agent: bis(tert-butylbenzo)-18-crown-6 (subsequently referred to as DTBDB18C6), di-isooctylbenzo-18-crown-6 (subsequently referred to as DIODB18C6), bis(tert-butylcyclohexane-18-crown-6 (subsequently referred to as DTBDCH18C6), di-isooxyldicyclohexane-18-crown-6 (subsequently referred to as DIODCH18C6), bicyclohexane-18-crown-6 (subsequently referred to as DCH18C6) or dibenzo-21-crown-7 (subsequently referred to as DB21C7), in an organic solvent according to the invention: polyfluorinated telomeric alcohol 1,1,7-trihydrododecafluoroheptanol-1 (subsequently referred to as fluoroheptanol n3).
(§2) For comparison, the distribution ratios of strontium and cesium were determined using extractants containing similar crown ethers in another organic solvent (decane).
(§3) Taken for the tests were experimental aqueous nitrate solutions containing strontium and cesium in a concentration of 1 g/l with a content of nitric acid of about 3.0 mol/l.

[3] = Extraction of cesium under dynamic conditions (7.2)
Text: (§4) The scheme of the process and the conditions of extraction of cesium by the method according to the invention are similar to those described above in 7.1, but the organic phase for extraction of cesium includes solutions DB21C7 in a concentration of about 0.05 mol/l in an organic solvent containing synthanol in an amount of 5% by volume and Fluoroheptanol n3 in an amount of about 95% by volume.
(§5) During the operation of the experimental facility radiometric monitoring devices were used to control the concentration of strontium in the refined products, re-extracts and reclaims, as well as the concentration of the crown ethers in the extracted products. The technological characteristics of the process and solubility of the crown ether (averaged values of several experiments) are given in Table 16.

[4] = Concentration of crown ether in extracted products, dynamic cesium extraction (7.2)
Text: as §4, §5

[5] = Distribution ratio of cesium extracted in organic solutions of crown ethers (Table 1); settings: crown ether 0.1 mole/l in Fluoroheptanol n3; Sr and Cs 1 g/l, nitric acid about 3.0 mol/l
Description: as §1, §2, §3

[6] = Concentration of crown ether in extracted products, dynamic strontium extraction (7.1)
Text: A starting aqueous solution whose composition and concentration of the components are given in Table 3 for a solution No.1 was contacted with the extractant according to the invention containing 0.05 mole/l of DCH18C6 in a solvent containing 20% by volume of synthanol and 80% by volume of Fluoroheptanol n3 in a continuous countercurrent process on a facility with extractors such as “mixer-settler” devices with impulse agitation and phase transportation. The extraction included eight steps of extraction, two washing steps, eight re-extraction steps and two steps of regeneration of the reused extractant.
When running the facility, radiometric monitoring devices were used to control the concentration of strontium in the refined products, re-extracts and reclaims, as well as the concentration of the crown ethers in the extracted products.

c1ccc2c(c1)OCCOCCOCCOc1ccccc1OCCOCCO2 [DB21C7, dibenzo-21-crown-7]
Concentration of nitric acid at the maximum of cesium extraction [1]: ~3.0 mol/l | Distribution ratios of cesium ([1]; nitric acid 0 mol/l, Fluoroheptanol n3): 0.25 | Distribution ratios of cesium ([1]; nitric acid 0.1 mol/l): 1.0 | Distribution ratios of cesium ([1]; nitric acid 0.5 mol/l): 3.2 | Distribution ratios of cesium ([1]; nitric acid 1.0 mol/l): 7.8 | Distribution ratios of cesium ([1]; nitric acid 2.0 mol/l): 10.2 | Distribution ratios of cesium ([1]; nitric acid 3.0 mol/l): 12.2 | Distribution ratios of cesium ([1]; nitric acid 4.0 mol/l): 11.4 | Distribution ratios of cesium ([1]; nitric acid 5.0 mol/l): 10.0 | Distribution ratios of cesium ([1]; nitric acid 6.0 mol/l): 8.0 | Distribution ratios of cesium ([1]; nitric acid 7.0 mol/l): 6.2 | Distribution ratios of cesium ([1]; nitric acid 8.0 mol/l): 5.0 | Remarks [2]: Is insoluble | Content of cesium in the extracted products in percent of the feedstock ([3]; Re-extract): 94.5% of the feedstock | Content of cesium in the extracted products in percent of the feedstock ([3]; Reclaim): 4.15% of the feedstock | Content of cesium in the extracted products in percent of the feedstock ([3]; Refined product, 0.05 mol/l DB21C7, Synthanol 5% / Fluoroheptanol n3 95%, solution No.1): 1.35% of the feedstock | Cesium yield in a saltless product ([3]; dynamic conditions 7.2): about 95% | Extraction of cesium ([3]; dynamic conditions 7.2): > 98% | Concentration of the crown ether in the extracted products ([4]; Re-extract): 53 Mg/l | Concentration of the crown ether in the extracted products ([4]; Reclaim): 18 Mg/l | Concentration of the crown ether in the extracted products ([4]; Refined product): 27 Mg/l | Distribution ratio Cesium [5]: 10.7

C1CCC2OCCOCCOC3CCCCC3OCCOCCOC2C1 (stereo not shown) [DCH18C6, bicyclohexane-18-crown-6]
Concentration of crown ether in the extracted products ([6]; Re-extract): 172 Mg/l | Concentration of crown ether in the extracted products ([6]; Reclaim): 30 Mg/l | Concentration of crown ether in the extracted products ([6]; Refined product): 80 Mg/l

Source: patent US20080014133A1, “Extraction Of Radionuclides By Crown Ether-Containing Extractants” (priority 2004, published 2008)
